{"source": "patent EP4707392A1", "about": "“DOUBLE-STRANDED OLIGONUCLEOTIDE, CONJUGATE THEREOF, AND USE THEREOF” (priority 2023, dated 2024)", "data": [{"tested_on": "coagulation factor XI (Factor XI, FXI) mRNA", "experiment": "In vitro inhibitory activity of siRNA conjugates modified with TOM against FXI mRNA, free uptake by mouse primary hepatocytes (Example 6)", "type": "cell-based", "conditions": "not given", "description": "The inhibitory activities of the siRNA conjugates modified with TOM at different sites of an antisense strand against a target gene FXI in mouse primary hepatocytes were evaluated by the same experimental method as that in Example 4. Differences lie in that the siRNA conjugates modified with TOM at different sites of an antisense strand were used in the present example to replace the siRNA conjugates used in Example 4, and that target gene FXI detection primers listed in Table 13 were used in the present example to replace target gene detection primers used in Example 4. Relative quantitative calculation was performed for the target gene mRNA in various test groups by the preceding ΔΔCt method.", "values": [{"substance": "RZ594014: siRNA conjugate, SEQ ID NOs 305/306 (chain 1 GUACGUGGACUGGAUUCUG; chain 2 CAGAATCCAGTCCACGTACTT; siRNA conjugate, conjugate and pattern not given here)", "in vitro activity compared with the reference sequence (RZ594001) without TOM modification": "significantly weakened the in vitro activity"}, {"substance": "RZ594005: siRNA conjugate, SEQ ID NOs 343/344 (chain 1 GUACGUGGACUGGAUUCUG; chain 2 CAGAATCCAGTCCACGTACTT; siRNA conjugate, conjugate and pattern not given here)", "in vitro activity compared with the reference sequence (RZ594001) without TOM modification": "conducive to enhancing in vitro activity"}, {"substance": "RZ594013: siRNA conjugate, SEQ ID NOs 303/304 (chain 1 GUACGUGGACUGGAUUCUG; chain 2 CAGAATCCAGTCCACGTACTT; siRNA conjugate, conjugate and pattern not given here)", "in vitro activity compared with the reference sequence (RZ594001) without TOM modification": "significantly weakened the in vitro activity"}, {"substance": "RZ594041: siRNA conjugate, SEQ ID NOs 369/370 (chain 1 GUACGUGGACUGGAUUCUG; chain 2 CAGAATCCAGTCCACGTACTT; siRNA conjugate, conjugate and pattern not given here)", "in vitro activity compared with the reference sequence (RZ594001) without TOM modification": "conducive to enhancing in vitro activity"}, {"substance": "RZ594008: siRNA conjugate, SEQ ID NOs 293/294 (chain 1 GUACGUGGACUGGAUUCUG; chain 2 CAGAATCCAGTCCACGTACTT; siRNA conjugate, conjugate and pattern not given here)", "in vitro activity compared with the reference sequence (RZ594001) without TOM modification": "significantly weakened the in vitro activity"}, {"substance": "RZ594011: siRNA conjugate, SEQ ID NOs 299/300 (chain 1 GUACGUGGACUGGAUUCUG; chain 2 CAGAATCCAGTCCACGTACTT; siRNA conjugate, conjugate and pattern not given here)", "in vitro activity compared with the reference sequence (RZ594001) without TOM modification": "conducive to enhancing in vitro activity"}, {"substance": "RZ594004: siRNA conjugate, SEQ ID NOs 341/342 (chain 1 GUACGUGGACUGGAUUCUG; chain 2 CAGAATCCAGTCCACGTACTT; siRNA conjugate, conjugate and pattern not given here)", "in vitro activity compared with the reference sequence (RZ594001) without TOM modification": "conducive to enhancing in vitro activity"}, {"substance": "RZ594030: siRNA conjugate, SEQ ID NOs 347/348 (chain 1 GUACGUGGACUGGAUUCUG; chain 2 CAGAATCCAGTCCACGTACTT; siRNA conjugate, conjugate and pattern not given here)", "in vitro activity compared with the reference sequence (RZ594001) without TOM modification": "conducive to enhancing in vitro activity"}, {"substance": "RZ594040: siRNA conjugate, SEQ ID NOs 367/368 (chain 1 GUACGUGGACUGGAUUCUG; chain 2 CAGAATCCAGTCCACGTACTT; siRNA conjugate, conjugate and pattern not given here)", "in vitro activity compared with the reference sequence (RZ594001) without TOM modification": "conducive to enhancing in vitro activity"}, {"substance": "RZ594024: siRNA conjugate, SEQ ID NOs 325/326 (chain 1 GUACGUGGACUGGAUUCUG; chain 2 CAGAATCCAGTCCACGTACTT; siRNA conjugate, conjugate and pattern not given here)", "in vitro activity compared with the reference sequence (RZ594001) without TOM modification": "conducive to enhancing in vitro activity"}, {"substance": "RZ594035: siRNA conjugate, SEQ ID NOs 357/358 (chain 1 GUACGUGGACUGGAUUCUG; chain 2 CAGAATCCAGTCCACGTACTT; siRNA conjugate, conjugate and pattern not given here)", "in vitro activity compared with the reference sequence (RZ594001) without TOM modification": "conducive to enhancing in vitro activity"}, {"substance": "RZ594018: siRNA conjugate, SEQ ID NOs 313/314 (chain 1 GUACGUGGACUGGAUUCUG; chain 2 CAGAATCCAGTCCACGTACTT; siRNA conjugate, conjugate and pattern not given here)", "in vitro activity compared with the reference sequence (RZ594001) without TOM modification": "conducive to enhancing in vitro activity"}, {"substance": "RZ594012: siRNA conjugate, SEQ ID NOs 301/302 (chain 1 GUACGUGGACUGGAUUCUG; chain 2 CAGAATCCAGTCCACGTACTT; siRNA conjugate, conjugate and pattern not given here)", "in vitro activity compared with the reference sequence (RZ594001) without TOM modification": "conducive to enhancing in vitro activity"}, {"substance": "RZ594025: siRNA conjugate, SEQ ID NOs 327/328 (chain 1 GUACGUGGACUGGAUUCUG; chain 2 CAGAATCCAGTCCACGTACTT; siRNA conjugate, conjugate and pattern not given here)", "in vitro activity compared with the reference sequence (RZ594001) without TOM modification": "conducive to enhancing in vitro activity"}, {"substance": "RZ594015: siRNA conjugate, SEQ ID NOs 307/308 (chain 1 GUACGUGGACUGGAUUCUG; chain 2 CAGAATCCAGTCCACGTACTT; siRNA conjugate, conjugate and pattern not given here)", "in vitro activity compared with the reference sequence (RZ594001) without TOM modification": "significantly weakened the in vitro activity"}, {"substance": "RZ594009: siRNA conjugate, SEQ ID NOs 295/296 (chain 1 GUACGUGGACUGGAUUCUG; chain 2 CAGAATCCAGTCCACGTACTT; siRNA conjugate, conjugate and pattern not given here)", "in vitro activity compared with the reference sequence (RZ594001) without TOM modification": "significantly weakened the in vitro activity"}, {"substance": "RZ594016: siRNA conjugate, SEQ ID NOs 309/310 (chain 1 GUACGUGGACUGGAUUCUG; chain 2 CAGAATCCAGTCCACGTACTT; siRNA conjugate, conjugate and pattern not given here)", "in vitro activity compared with the reference sequence (RZ594001) without TOM modification": "significantly weakened the in vitro activity"}, {"substance": "RZ594019: siRNA conjugate, SEQ ID NOs 315/316 (chain 1 GUACGUGGACUGGAUUCUG; chain 2 CAGAATCCAGTCCACGTACTT; siRNA conjugate, conjugate and pattern not given here)", "in vitro activity compared with the reference sequence (RZ594001) without TOM modification": "conducive to enhancing in vitro activity"}, {"substance": "RZ594006: siRNA conjugate, SEQ ID NOs 345/346 (chain 1 GUACGUGGACUGGAUUCUG; chain 2 CAGAATCCAGTCCACGTACTT; siRNA conjugate, conjugate and pattern not given here)", "in vitro activity compared with the reference sequence (RZ594001) without TOM modification": "conducive to enhancing in vitro activity"}]}, {"tested_on": "CC3 mRNA", "experiment": "Inhibitory activity of siRNAs modified with MOE at different sites against CC3 mRNA in HepG2 cells (Example 8)", "type": "cell-based, human", "conditions": "MOE at a single site", "description": "In vitro activities of siRNA compounds, such as RX502165 modified with MOE at different sites of a sense strand and RX502172 modified with MOE at different sites of an antisense strand, and a reference compound RX502001 without MOE modification on HepG2 cells were evaluated using the same experimental method as that in Example 2. A difference lies in that the siRNA compounds modified with MOE at different sites of the sense and antisense strands were used in the present example to replace the siRNA compounds used in Example 2. Relative quantitative calculation was performed for the target gene mRNA in various test groups by the preceding ΔΔCt method.", "values": [{"substance": "RZ594011: siRNA conjugate, SEQ ID NOs 299/300 (chain 1 GUACGUGGACUGGAUUCUG; chain 2 CAGAATCCAGTCCACGTACTT; siRNA conjugate, conjugate and pattern not given here)", "in vitro activity compared with the reference sequence (RX502001) without MOE modification": "conducive to elevating the in vitro activity"}]}]}
